Reference: US11166464B2, “Self-assembled active agents” (priority 2017, dated 2021)
Marks after values point to notes of the source that are not given here.

Experiments:
[1] = system: Pseudomonas aeruginosa; assay: MIC and synergy (1/FICI) in cation-adjusted Mueller-Hinton broth, abs600 after 24 h; assay type: cell-based; settings: for MIC (wt %): component alone, 24 h, 37° C.
Experimental: (§1) To compare antimicrobial efficacy of self-assembled complexes to their components, fractional inhibitory concentration indices (FICIs) were calculated from measured minimum inhibitory concentrations (MICs) against Pseudomonas aeruginosa and Escherichia coli. The MIC of each substance was determined according to standard guidelines in cation-adjusted Mueller-Hinton broth at a total volume of ˜100 μl with test concentrations decreasing two-fold to span the empirically-determined MIC (J. Med. Chem., 59: 2126-2138 (2016)). Wells contained starting microbe concentrations of approximately 10^7 cells/mL. Absorbance at 600 nm (abs600) was determined immediately after inoculation using a 96 well plate reader. Plates were incubated at 37° C. and abs600 measured after 24 hours. For the purposes of these experiments, minimum inhibitory concentrations are defined as the minimum concentration observed to inhibit microbial growth over this time span, with a change in abs600 less than or equal to 0.1.
Following MIC testing, FICI were calculated as shown in Equation 1: […]
The FICI can be used to quantify the synergy between two components (X and Y). Specifically, 1/FICI can be used as a measure of synergy, interpreted as factors by which the potency of a given combination is greater than the sum of its parts (see Journal of Antimicrobial Chemotherapy, 52:1 (2003)). For example, in the present invention, synergy may be found when the effective amount of the self-assembled active agent is lower than the sum of the effective amounts of the two or more component molecules.
(§2) For the data in Table 2, when multiple components were used to form a complex, the amine component was present in excess of a 1:1 molar ratio.
The MICs determined as per above were then used to calculate FICIs. Note that 1/FICI values varied with subcomponent ratio; unless otherwise noted, the values shown in Table 3 represent a molar ratio of 6:1, amine:aldehyde.

[2] = system: A. brasiliensis ATCC16404; assay: MIC of aminoguanidine-aldehyde adducts, actives dissolved in all-purpose cleaner and diluted in MH broth; assay type: cell-based, Aspergillus brasiliensis; settings: aminoguanidine adduct of the listed aldehyde; 4 × 10^5 spores/mL starting spore counts; Table 4
Experimental: General procedure for preparation of actives: Complexes were formed by treating 20 mg of aldehyde or ketone with 180 mg of aminoguanidine HCl stock solution (37 wt % aminoguanidine HCl in dH2O) and heating at 60° C. for 48 h. The resulting product mixtures were subsequently screened for antimicrobial activity.

[3] = system: Aspergillus brasillensis, ATCC16404; assay: Preservative test in home cleaning formulations; assay type: cell-based, Aspergillus brasiliensis; settings: aminoguanidine adducts of the named hydrophilic aldehydes
[4] = system: Aspergillus brasiliensis (ATCC 16404); assay: Viability of microbes in formula over time (log reduction in cell count); assay type: cell-based; settings: seven days, initial 5 × 10^6 cells/mL; for Log Reduction in APC formula: aminoguanidine complex of the listed aldehyde at 0.1 wt % in all-purpose cleaner; for Log Reduction in MDC formula: aminoguanidine complex of the listed aldehyde at 0.1 wt % in manual dish formula
Experimental: […] The total volume of the mixture was 5 mL. The inoculated mixture was kept in a shaker at 30° C. for 7 days. Microorganism viability was determined by plating […] of inoculated mixture on MH agar plates on days 0, 3, and 7.
A. Brasiliensis cell counts were monitored and counted over seven days.

[5] = system: A. brasiliensis ATCC16404; assay: MIC of aminoguanidine-aldehyde adducts, actives dissolved in all-purpose cleaner and diluted in MH broth; assay type: cell-based, Aspergillus brasiliensis; settings: subcomponent alone (parent aldehyde, aminoguanidine or biocide standard), not the complex; Table 5
[6] = system: Escherichia coli; assay: MIC in cation-adjusted Mueller-Hinton broth, abs600 after 24 h; assay type: cell-based; settings: amine + aldehyde combined, amine in excess of 1:1 molar ratio, E. coli
Experimental: as §1, §2

O=Cc1cc(C=O)cc(C=O)c1 [Entry 7, benzene-1,3,5-tricarboxaldehyde]
MIC (wt %) ([1]; P. aeruginosa): 0.3^i wt %
Synergism (1/FICI) with B, extrapolated ([1]; extrapolated from eight FICI measurements where the weight ratio of B:7 varied from 1:1 to 9:1): 1000*

2,6-dimethoxybenzaldehyde
MIC (wt %) [2]: 0.0149 wt %
Preservation of the high surfactant manual dish formula [3]: enabled effective preservation

m-anisaldehyde
MIC (wt %) [2]: 0.0595 wt %
Preservation of the high surfactant manual dish formula [3]: enabled effective preservation

COc1ccc(C=O)c(OC)c1 [2,4-dimethoxybenzaldehyde]
Log Reduction in APC formula [4]: 6
Log Reduction in MDC formula [4]: 1

glyoxal [Entry 1]
MIC (wt %) ([1]; P. aeruginosa): 0.04^i wt %

vanillin isobutyrate
MIC (wt %) [2]: 0.1190 wt %

4-hydroxybenzaldehyde
MIC (wt %) [2]: 0.0298 wt %
Preservation of the high surfactant manual dish formula [3]: enabled effective preservation

O=Cc1cccc(C=O)c1Br [2-bromoisophthalaldehyde]
Log Reduction in APC formula [4]: 2
Log Reduction in MDC formula [4]: 1

2-hydroxyl-4-methoxybenzaldehyde
Log Reduction in APC formula [4]: 1
Log Reduction in MDC formula [4]: 1
MIC (wt %) [2]: 0.0149 wt %

O=Cc1ccc(C=O)o1 [2,5-furandicarboxaldehyde]
Log Reduction in APC formula [4]: 1
Log Reduction in MDC formula [4]: 1

O=Cc1ccc(C=O)cc1 [Entry 5, terephthalaldehyde]
MIC (wt %) ([1]; P. aeruginosa): 0.3^i wt %

Cl.N=C(NN)NN [A, 1,3-diaminoguanidine]
MIC (wt %) ([1]; P. aeruginosa): 0.3^i wt %

NC(N)=NN=Cc1ccc(C=NN=C(N)N)cc1 [B + 5]
MIC (wt %) of complex, given as aldehyde component ([1]; amine + aldehyde combined, amine in excess of 1:1 molar ratio, concentration of aldehyde component, P. aeruginosa): 0.01^i wt %
MIC (wt %) of complex, given as amine component ([1]; amine + aldehyde combined, amine in excess of 1:1 molar ratio, concentration of amine component, P. aeruginosa): 0.06^i wt %

aminoguanidine [B]
MIC (wt %) subcomponent [5]: >0.4762 wt %
MIC (wt %) ([1]; P. aeruginosa): >2^i wt %

Cc1cc(C=NN=C(N)N)c(O)c(C=NN=C(N)N)c1 [B + 10]
MIC (wt %) of complex, given as aldehyde component ([6]; concentration of aldehyde component): 0.002^ii wt %
MIC (wt %) of complex, given as amine component ([6]; concentration of amine component): 0.02^ii wt %

O=Cc1ccc(C=O)s1 [2,5-thiophenedicarboxaldehyde]
Log Reduction in APC formula [4]: 2
Log Reduction in MDC formula [4]: 1

2,4,6-trimethoxybenzaldehyde
MIC (wt %) [2]: 0.0595 wt %
Preservation of the high surfactant manual dish formula [3]: enabled effective preservation
